According to patent publication US8148427B2, “Benzylamine derivative or pharmaceutically acceptable acid addition salt thereof, and use thereof for medical purposes” (Toray Industries, Inc., priority 2007, dated 2012):
Where two headings read alike, the source gives them in different places. Marks after values point to notes of the source that are not given here.

Columns and labels:
[1] = tested on: female Spague-Dawley rat; test: Number of voiding episodes in rat natural voiding behavior test; format: in vivo; settings: 1 hour after administration
Procedure: This method was carried out according to the literature [Jpn. J. Pharmacol., 87, 27 (2001)]. Each female Spague-Dawley rat was placed in a urine collection cage, and an electronic balance was placed under the cage. Excreted urine was allowed to fall into a urine collection tray placed on the electronic balance, and its change in weight every 10 seconds was scaled with time through a personal computer. Not less than 0.1 g of the change in weight was regarded as indicative of urination, and the weight of 1 g was regarded as corresponding to 1 mL of urine. Drug administration was carried out subcutaneously, and the number of voiding episodes was measured for 1 hour before and after the drug administration, to observe its change (number of cases: 11 to 18/group).
Significant difference test was carried out by student's-test or williams test, wherein a significance level of less than 5% was accepted as significant (* in the table).

[2] = tested on: female Spague-Dawley rat; test: Effect on cardiovascular system in anesthetized rats; format: in vivo; settings: cumulative, 30 minutes, relative to before administration
Procedure: (§1) This method was carried out in accordance with the literature [Experimental Methods in Pharmacology, 5th Revised Edition, p. 168, KYODO ISHO SHUPPAN CO., LTD.]
Each female Spague-Dawley rat was anesthetized with urethane, and a polyethylene cannula was inserted into the left common carotid artery and fixed therein, to measure the mean blood pressure and the heart rate. […] Data were represented as amounts of the changes (blood pressure: mmHg, heart rate: %) relative to values before the administration (number of cases: 3 to 8/group).

[3] = tested on: female Spague-Dawley rat; test: Effect on cardiovascular system in conscious rats; format: in vivo; settings: 30 minutes, relative to before administration
Procedure: as §1
Each female Spague-Dawley rat was anesthetized with ether, and a polyethylene cannula was inserted into the left common carotid artery and fixed therein, followed by subcutaneously indwelling a cannula for drug administration. After recovery from anesthesia, the mean blood pressure and the heart rate were measured under free moving conditions.

[4] = tested on: female Spague-Dawley rat; test: Number of voiding episodes in rat natural voiding behavior test; format: in vivo; settings: 3 hours after the administration
[5] = tested on: isolated bladder smooth muscle; test: Relaxing activity test against isolated bladder smooth muscle in rat; settings: resting tension of isolated rat bladder; relaxation by 10 μM forskolin = 100%
Procedure: This method was carried out in accordance with the literature [J. Pharmacol. Exp. Ther., 293, 939 (2000)]. Each bladder was isolated from a normal Spague-Dawley rat, and a bladder section of the size of about 2×10 mm was prepared in the nutrient solution (Krebs solution [NaCl 118 mM; KCl 4.7 mM; NaH2PO4 1.1 mM; glucose 10 mM; NaHCO3 25 mM; MgCl2.7H2O 1 mM; CaCl2.2H2O 2.5 mM]) sufficiently oxygenated with 95% O2+5% CO2. The sample was suspended in a Magnus tube filled with the nutrient solution (Krebs solution) aerated with 95% O2+5% CO2 at 37° C., and stabilized under a load of 0.5 g for 60 minutes or longer. The resting tension of the bladder sample was recorded in a pen recorder through a tension transducer. The test compound was cumulatively applied about every 10 minutes. […] The test compound was dissolved in distilled water or aqueous 10% dimethylsulfoxide solution.

[6] = target: T1, human adrenergic β3 receptor (Homo sapiens, UniProt P13945); test: Agonistic activity (cAMP production) against human adrenergic β3 receptor in SK-N-MC cells; format: cell-based
T1 construct: evaluated using SK-N-MC cells in the presence of a selective adrenergic β1 receptor antagonist; endogenous in cells; host or cells: SK-N-MC cells
T1 sequence (P13945 whole entry): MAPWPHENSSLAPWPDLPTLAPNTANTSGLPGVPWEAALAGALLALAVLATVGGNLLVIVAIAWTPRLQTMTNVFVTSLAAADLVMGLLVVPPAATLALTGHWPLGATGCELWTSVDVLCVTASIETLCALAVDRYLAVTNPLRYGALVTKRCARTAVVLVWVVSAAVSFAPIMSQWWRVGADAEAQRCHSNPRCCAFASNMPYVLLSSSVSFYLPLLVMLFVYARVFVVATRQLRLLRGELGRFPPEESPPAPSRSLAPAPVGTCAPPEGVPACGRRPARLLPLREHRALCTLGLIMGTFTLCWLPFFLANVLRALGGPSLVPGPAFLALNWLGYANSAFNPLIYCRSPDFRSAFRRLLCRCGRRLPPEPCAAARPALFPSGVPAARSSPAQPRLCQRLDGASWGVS
Procedure: (§2) This method was carried out according to the literature [J. Pharmacol. Exp. Ther., 271, 1253 (1994)] or [Naunyn-Schmiedeberg's Arch. Pharmacol., 369, 151 (2004)], using the amount of the production of cAMP as an index. The agonistic activity against human adrenergic β3 receptor was evaluated using SK-N-MC cells in the presence of a selective adrenergic β1 receptor antagonist (CGP-20712A, 1 μM). Evaluation of the agonistic activities against human adrenergic β2 and β1 receptors was carried out using CHO-K1 cells forcibly-expressed each receptor. Their cells were cultured in a culture flask. In assay day, they were detached and collected with EDTA, followed by dispensing in a 384-well plate so as to attain 10,000 cells/well. The test compound of each concentration was added to each well and allowed to react in a CO2 incubator at 37° C. for 30 minutes, followed by quantification of the produced cAMP using cAMP detection kit (Perkinelmer). The logarithm of the 50% reaction concentration of each test compound was calculated taking the reaction by 100 or 300 nM Isoproterenol as 100%. The test drug was added up to 10 μM, and in cases where reaction of not less than 50% was not observed at this concentration, the result was represented as n.d. (not detected).

[7] = target: T2, human adrenergic β2 receptor (Homo sapiens, UniProt P07550); test: Agonistic activity (cAMP production) against human adrenergic β2 receptor in CHO-K1 cells; format: cell-based
T2 construct: expressed in transfected cells; host or cells: CHO-K1 cells
T2 sequence (P07550 whole entry): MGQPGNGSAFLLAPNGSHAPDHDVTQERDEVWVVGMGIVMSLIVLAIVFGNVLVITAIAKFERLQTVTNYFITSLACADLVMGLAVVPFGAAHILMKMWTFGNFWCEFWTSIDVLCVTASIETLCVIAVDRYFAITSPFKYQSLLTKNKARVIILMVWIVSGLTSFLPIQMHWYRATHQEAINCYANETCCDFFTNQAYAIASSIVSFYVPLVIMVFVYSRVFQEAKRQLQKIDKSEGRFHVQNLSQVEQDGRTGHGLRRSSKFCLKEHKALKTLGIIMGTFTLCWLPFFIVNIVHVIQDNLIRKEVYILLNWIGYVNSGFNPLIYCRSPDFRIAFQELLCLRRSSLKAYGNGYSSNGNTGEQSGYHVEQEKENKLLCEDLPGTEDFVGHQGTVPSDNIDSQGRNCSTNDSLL
Procedure: as §2

[8] = tested on: isolated bladder smooth muscle; test: Relaxing activity against isolated bladder smooth muscle in human; settings: relaxation by 10 μM forskolin = 100%
Procedure: This method was carried out in accordance with the literature [J. Urology, 165, 240 (2001)].
A normal part (non-cancerous part) of the bladder removed from a human male (32-72 years old) by bladder cancer surgery was used. A bladder section sizing about 3×10 mm was prepared in the nutrient solution (Krebs solution [NaCl 118 mM; KCl 4.7 mM; NaH2PO4 1.2 mM; glucose 10 mM; NaHCO3 25 mM; MgCl2.7H2O 1.2 mM; CaCl2.2H2O 2.5 mM]) sufficiently oxygenated with 95% O2+5% CO2. The sample was suspended in a Magnus tube filled with the nutrient solution (Krebs solution) aerated with 95% O2+5% CO2 at 37° C., and stabilized under a load of 0.5 g for 60 minutes or longer. The resting tension of the bladder sample was recorded in a pen recorder through a tension transducer. The test compound was cumulatively applied about every 10 minutes. The test compound was dissolved in distilled water or aqueous 10% DMSO solution (number of cases: 3 to 4/group).

[9] = SK-N-MC cells, cAMP, with CGP-20712A 1 μM, 100 or 300 nM Isoproterenol = 100%, tested up to 10 μM, read-out: β3 (logarithm of the 50% reaction concentration) (converted)

SMILES | Number of Voiding Episodes ([1]; 3 mg/kg subcutaneously) | Change in Blood Pressure ([2]; 3 mg/kg subcutaneously) | EC50 [5] | EC50 [6, 9] | EC50 [8] | EC50 [6] | also measured
Nc1nc(CC(=O)Nc2ccc(CCNC[C@H](O)c3ccccc3)cc2)cs1 [Compound 11, reference compound] | 0.67 ± 0.19 | −17.1 ± 3.5 mmHg | – | – | – | – | Number of Voiding Episodes ([1]; 3 mg/kg subcutaneously, listed as compound 11): did not show a significant effect; Change in Heart Rate ([2]; 3 mg/kg subcutaneously, 3 mg/kg): 133.5 ± 8.2 %; Change in Blood Pressure ([3]; 3 mg/kg subcutaneously): −22.5 ± 5.6 mmHg; effect of decreasing the frequency of voiding episodes [4]: significant effect
COc1cc(CN[C@@H](C)[C@H](O)c2ccc(O)c(NS(C)(=O)=O)c2)cc(OC)c1 [Example 1, N-(5-((1R,2S)-2-(3,5-Dimethoxybenzylamino)-1-hydroxypropyl)-2-hydroxyphenyl)methane-sulfonamide] | – | −25.0 ± 3.6 mmHg | 229 nM | 39.8 nM | 562 nM | – | Number of Voiding Episodes ([1]; 0.1 mg/kg subcutaneously): 1.06 ± 0.17; Number of Voiding Episodes ([1]; 0.3 mg/kg subcutaneously): 0.83 ± 0.12*; Number of Voiding Episodes ([1]; 1 mg/kg subcutaneously): 0.94 ± 0.17*; Change in Blood Pressure ([2]; 0.3 mg/kg subcutaneously): −25.2 ± 4.7 mmHg; Change in Heart Rate ([2]; 0.3 mg/kg subcutaneously): 121.7 ± 4.2%; Change in Blood Pressure ([2]; 1 mg/kg subcutaneously): −25.4 ± 2.3 mmHg; Change in Heart Rate ([2]; 1 mg/kg subcutaneously): 126.4 ± 5.1%; Change in Heart Rate ([2]; 3 mg/kg subcutaneously): 135.2 ± 8.4%; Change in Blood Pressure ([3]; 0.3 mg/kg subcutaneously): −6.5 ± 5.5 mmHg; Change in Heart Rate ([3]; 0.3 mg/kg subcutaneously): 107.7 ± 3.5%; EC50 ([7]; CHO-K1 cells, cAMP, 100 or 300 nM Isoproterenol = 100%, tested up to 10 μM, n.d. = not detected at 10 μM, read-out: β2 (logarithm of the 50% reaction concentration) (converted)): 2340 nM
C[C@H](NCc1cc(C(F)(F)F)cc(C(F)(F)F)c1)[C@H](O)c1ccc(O)c(NS(C)(=O)=O)c1 [Example 2, N-(5-((1R,2S)-2-(3,5-Bis(trifluoromethyl)benzylamino)-1-hydroxypropyl)-2-hydroxyphenyl)methanesulfonamide] | 0.45 ± 0.21* | – | 36.3 nM | 31.6 nM | – | – | –
C[C@H](NCc1cc(Cl)cc(Cl)c1)[C@H](O)c1ccc(O)c(NS(C)(=O)=O)c1 [Example 3, N-(5-((1R,2S)-2-(3,5-Dichlorobenzylamino)-1-hydroxypropyl)-2-hydroxyphenyl)methane-sulfonamide] | 0.50 ± 0.15* | – | 89.1 nM | – | – | 21.9 nM | EC50 [7]: 1070 nM
COc1cc(CN[C@@H](C)[C@H](O)c2ccc(O)c(NS(C)(=O)=O)c2)cc(OC)c1OC [Example 4, N-(2-Hydroxy-5-((1R,2S)-1-hydroxy-2-(3,4,5-trimethoxybenzylamino)propyl)phenyl)methane-sulfonamide] | 0.33 ± 0.19* | – | 74.1 nM | 33.1 nM | 708 nM | – | –
Cc1cc(C)cc(CN[C@@H](C)[C@H](O)c2ccc(O)c(NS(C)(=O)=O)c2)c1 [Example 5, N-(5-((1R,2S)-2-(3,5-Dimethylbenzylamino)-1-hydroxypropyl)-2-hydroxyphenyl)methane-sulfonamide] | 0.50 ± 0.15* | – | 151 nM | – | 575 nM | 72.4 nM | –
